Reference: patent publication US7932211B2, “4-(4-trifluoromethyl-3-thiobenzoyl)pyrazoles and their use as herbicides” (Bayer Cropscience AG, priority 2007, dated 2011)

Key:
Type in all cases: in vivo
[1] = system: POLCO Polygonum convolvulus; experiment: Post-emergence herbicidal action against harmful plants; conditions: Port-emergence, 80 g a.i./ha, scored after 3 to 4 weeks; Comparative Table 5
Experimental: (§1) Seeds of mono- and dicotyledonous harmful plants are placed in sandy loam in cardboard pots, covered with soil and grown in the greenhouse under good growth conditions. Two to three weeks after sowing, the test plants are treated at the three-leaf stage. The compounds according to the invention, which are formulated as wettable powders or as emulsion concentrates, are sprayed at an application rate of 600 to 800 l of water/ha (converted) in a dosage stated in tables 1 to 5 onto the surface of the green plant parts. After the test plants have been left to stand in the greenhouse for 3 to 4 weeks under optimum growth conditions, the action of the compounds according to the invention is scored in comparison to compounds disclosed in the prior art. As shown by the results of these comparison tables, the selected compounds according to the invention have better herbicidal activity against a broad spectrum of economically important mono- and dicotyledonous harmful plants than the compounds disclosed in the prior art.

STEME Stellaria media [2] = experiment: as above; conditions: Port-emergence, 80 g a.i./ha, scored after 3 to 4 weeks; Comparative Table 5
Experimental: as §1

VERPE Veronica persica [3] = experiment: as above; conditions: 80 g a.i./ha, scored after 3 to 4 weeks
Experimental: as §1

VIOTR Viola tricolor [4] = experiment: as above; conditions: 80 g a.i./ha, scored after 3 to 4 weeks
Experimental: as §1

MATIN Matricaria inodora = experiment: as above; conditions: 80 g a.i./ha, scored after 3 to 4 weeks
Experimental: as §1

[5] = system: XANST Xanthium strumarium; experiment: as above; conditions: 80 g a.i./ha, scored after 3 to 4 weeks, Comparative Table 11
Experimental: as §1

[6] = system: AMARE Amaranthus retroflexus; experiment: Pre-emergence herbicidal action against harmful plants; conditions: visual scoring 3-4 weeks after treatment
From the text: (§2) Seeds or rhizome pieces of mono- and dicotyledonous harmful plants are placed in sandy loam in pots of a diameter of 9 to 13 cm and covered with soil. The herbicides, formulated as emulsifiable concentrates or dusts, are applied to the surface of the covering soil in the form of aqueous dispersions or suspensions or emulsions at an application rate of 300 to 800 l of water/ha (converted), at various dosages. For further cultivation of the plants, the pots are then kept in a greenhouse under optimum conditions. The visual scoring of the damage to the harmful plants is carried out 3-4 weeks after the treatment. As shown by the results of these comparative tables, the selected compounds according to the invention have better herbicidal activity against a broad spectrum of economically important mono- and dicotyledonous harmful plants than the compounds disclosed in the prior art.

AVESA [7] = experiment: as above; conditions: 320 g a.i./ha, visual scoring 3-4 weeks after treatment, Comparative Table 6
From the text: as §2

LOLMU Lolium multiflorum [8] = experiment: as above; conditions: visual scoring 3-4 weeks after treatment
From the text: as §2

SETVI Setaria viridis [9] = experiment: as above; conditions: 320 g a.i./ha, visual scoring 3-4 weeks after treatment, Comparative Table 6
From the text: as §2

[10] = system: DIGSA Digitaria sanguinalis; experiment: Post-emergence herbicidal action against harmful plants; conditions: 80 g a.i./ha, scored after 3 to 4 weeks, Comparative Table 10
Experimental: as §1

[11] = system: ECHCG Echinochloa crus galli; experiment: as above; conditions: scored after 3 to 4 weeks
Experimental: as §1

LOLMU Lolium multiflorum [12] = experiment: as above; conditions: scored after 3 to 4 weeks
Experimental: as §1

SETVI Setaria viridis [13] = experiment: as above; conditions: scored after 3 to 4 weeks
Experimental: as §1

GALAP Galium aparine = experiment: Pre-emergence herbicidal action against harmful plants; conditions: 80 g a.i./ha, visual scoring 3-4 weeks after treatment, Comparative Table 8
From the text: as §2

[14] = system: POLCO Polygonum convolvulus; experiment: as above; conditions: 80 g a.i./ha, visual scoring 3-4 weeks after treatment, Comparative Table 8
From the text: as §2

[15] = system: ABUTH Abutilon theophrasti; experiment: Post-emergence herbicidal action against harmful plants; conditions: Port-emergence, 80 g a.i./ha, scored after 3 to 4 weeks; Comparative Table 4
Experimental: as §1

[16] = system: AMARE Amaranthus retroflexus; experiment: as above; conditions: Port-emergence, 80 g a.i./ha, scored after 3 to 4 weeks; Comparative Table 4
Experimental: as §1

[17] = system: ABUTH Abutilon theophrasti; experiment: Pre-emergence herbicidal action against harmful plants; conditions: 80 g a.i./ha, visual scoring 3-4 weeks after treatment, Comparative Table 1
From the text: as §2

[18] = system: ECHCG Echinochloa crus galli; experiment: as above; conditions: 80 g a.i./ha, visual scoring 3-4 weeks after treatment, Comparative Table 1
From the text: as §2

VERPE Veronica persica [19] = experiment: as above; conditions: 80 g a.i./ha, visual scoring 3-4 weeks after treatment
From the text: as §2

VIOTR Viola tricolor [20] = experiment: as above; conditions: 80 g a.i./ha, visual scoring 3-4 weeks after treatment, Comparative Table 9
From the text: as §2

[21] = system: XANST Xanthium strumarium; experiment: as above; conditions: 80 g a.i./ha, visual scoring 3-4 weeks after treatment, Comparative Table 9
From the text: as §2

AVESA [22] = experiment: Post-emergence herbicidal action against harmful plants; conditions: Port-emergence, scored after 3 to 4 weeks, Comparative Table 7
Experimental: as §1

STEME Stellaria media [23] = experiment: Pre-emergence herbicidal action against harmful plants; conditions: 80 g a.i./ha, visual scoring 3-4 weeks after treatment, Comparative Table 2
From the text: as §2

[24] = Port-emergence, Comparative Table 5
[25] = Post-emergence, Comparative Table 11
[26] = 320 g a.i./ha, Comparative Table 6
[27] = Post-emergence, 80 g a.i./ha, Comparative Table 10
[28] = Post-emergence, 80 g a.i./ha, Comparative Table 3
[29] = 80 g a.i./ha, Comparative Table 8
[30] = Port-emergence, Comparative Table 4
[31] = 80 g a.i./ha, Comparative Table 1
[32] = Port-emergence, 80 g a.i./ha, Comparative Table 7
[33] = Port-emergence, 320 g a.i./ha, Comparative Table 7
[34] = 80 g a.i./ha, Comparative Table 2

CCn1ncc(C(=O)c2ccc(C(F)(F)F)c(S(C)(=O)=O)c2C)c1O [drawing 23]
Activity against harmful plants POLCO [1]: 100% | Activity against harmful plants STEME (STEME Stellaria media [2]): 90% | Activity against harmful plants VERPE (VERPE Veronica persica [3]; [24]): 90% | Activity against harmful plants VIOTR (VIOTR Viola tricolor [4]; [24]): 80%

CCn1ncc(C(=O)c2ccc(C(F)(F)F)c(S(C)(=O)=O)c2C)c1O [drawing 35]
Activity against harmful plants MATIN (MATIN Matricaria inodora; [25]): 90% | Activity against harmful plants VERPE (VERPE Veronica persica [3]; [25]): 90% | Activity against harmful plants VIOTR (VIOTR Viola tricolor [4]; [25]): 80% | Activity against harmful plants XANST [5]: 100%

Cc1c(C(=O)c2cnn(C)c2O)ccc(C(F)(F)F)c1S(C)(=O)=O [drawing 25]
Activity against harmful plants AMARE [6, 26]: 100% | Activity against harmful plants AVESA (AVESA [7]): 90% | Activity against harmful plants LOLMU (LOLMU Lolium multiflorum [8]; [26]): 90% | Activity against harmful plants SETVI (SETVI Setaria viridis [9]): 100%

CCn1ncc(C(=O)c2ccc(C(F)(F)F)c(S(C)(=O)=O)c2C)c1O [drawing 33]
Activity against harmful plants DIGSA [10]: 100% | Activity against harmful plants ECHCG [11, 27]: 90% | Activity against harmful plants LOLMU (LOLMU Lolium multiflorum [12]; [27]): 60% | Activity against harmful plants SETVI (SETVI Setaria viridis [13]; [27]): 100%

CCn1ncc(C(=O)c2ccc(C(F)(F)F)c(S(C)(=O)=O)c2C)c1O [drawing 19]
Activity against harmful plants ECHCG [11, 28]: 90% | Activity against harmful plants LOLMU (LOLMU Lolium multiflorum [12]; [28]): 60% | Activity against harmful plants SETVI (SETVI Setaria viridis [13]; [28]): 100%

CCn1ncc(C(=O)c2ccc(S(C)(=O)=O)c(S(C)(=O)=O)c2C)c1O [drawing 34]
Activity against harmful plants DIGSA [10]: 80% | Activity against harmful plants ECHCG [11, 27]: 80% | Activity against harmful plants LOLMU (LOLMU Lolium multiflorum [12]; [27]): 20% | Activity against harmful plants SETVI (SETVI Setaria viridis [13]; [27]): 80%

CCn1ncc(C(=O)c2ccc(S(C)(=O)=O)c(S(C)(=O)=O)c2C)c1O [drawing 30]
Activity against harmful plants GALAP (GALAP Galium aparine): 60% | Activity against harmful plants LOLMU (LOLMU Lolium multiflorum [8]; [29]): 0% | Activity against harmful plants POLCO [14]: 30%

CCn1ncc(C(=O)c2ccc(C(F)(F)F)c(S(C)(=O)=O)c2C)c1O [drawing 21]
Activity against harmful plants ABUTH [15]: 90% | Activity against harmful plants AMARE [16]: 100% | Activity against harmful plants MATIN (MATIN Matricaria inodora; [30]): 90%

CCn1ncc(C(=O)c2ccc(C(F)(F)F)c(F)c2C)c1O [drawing 16]
Activity against harmful plants ABUTH [17]: 0% | Activity against harmful plants ECHCG [18]: 30% | Activity against harmful plants LOLMU (LOLMU Lolium multiflorum [8]; [31]): 0%

CCn1ncc(C(=O)c2ccc(C(F)(F)F)c(S(C)(=O)=O)c2C)c1O [drawing 31]
Activity against harmful plants VERPE (VERPE Veronica persica [19]; Comparative Table 9): 90% | Activity against harmful plants VIOTR (VIOTR Viola tricolor [20]): 90% | Activity against harmful plants XANST [21]: 100%

CCn1ncc(C(=O)c2ccc(C(F)(F)F)c(S(C)(=O)=O)c2C)c1O [drawing 29]
Activity against harmful plants GALAP (GALAP Galium aparine): 80% | Activity against harmful plants LOLMU (LOLMU Lolium multiflorum [8]; [29]): 70% | Activity against harmful plants POLCO [14]: 50%

CCn1ncc(C(=O)c2ccc(C(F)(F)F)c(F)c2C)c1O [drawing 20]
Activity against harmful plants ECHCG [11, 28]: 0% | Activity against harmful plants LOLMU (LOLMU Lolium multiflorum [12]; [28]): 0% | Activity against harmful plants SETVI (SETVI Setaria viridis [13]; [28]): 0%

Cc1c(C(=O)c2cnn(C)c2O)ccc(C(F)(F)F)c1S(C)(=O)=O [drawing 27]
Activity against harmful plants AVESA (AVESA [22]; 80 g a.i./ha): 70% | Activity against harmful plants ECHCG [11, 32]: 90% | Activity against harmful plants LOLMU (LOLMU Lolium multiflorum [12]; [32]): 80% | Activity against harmful plants SETVI (SETVI Setaria viridis [13]; [32]): 90%

Cc1c(C(=O)c2cnn(C)c2O)ccc(C(F)(F)F)c1Cl
Activity against harmful plants AVESA (AVESA [22]; 320 g a.i./ha): 20% | Activity against harmful plants ECHCG [11, 33]: 0% | Activity against harmful plants LOLMU (LOLMU Lolium multiflorum [12]; [33]): 20% | Activity against harmful plants SETVI (SETVI Setaria viridis [13]; [33]): 30%

CCn1ncc(C(=O)c2ccc(C(F)(F)F)c(F)c2C)c1O [drawing 24]
Activity against harmful plants POLCO [1]: 60% | Activity against harmful plants STEME (STEME Stellaria media [2]): 0% | Activity against harmful plants VERPE (VERPE Veronica persica [3]; [24]): 0% | Activity against harmful plants VIOTR (VIOTR Viola tricolor [4]; [24]): 0%

CCn1ncc(C(=O)c2ccc(C(F)(F)F)c(F)c2C)c1O [drawing 22]
Activity against harmful plants ABUTH [15]: 80% | Activity against harmful plants AMARE [16]: 0% | Activity against harmful plants MATIN (MATIN Matricaria inodora; [30]): 0%

Cc1c(C(=O)c2cnn(C)c2O)ccc(C(F)(F)F)c1F
Activity against harmful plants AMARE [6, 26]: 50% | Activity against harmful plants AVESA (AVESA [7]): 20% | Activity against harmful plants LOLMU (LOLMU Lolium multiflorum [8]; [26]): 20% | Activity against harmful plants SETVI (SETVI Setaria viridis [9]): 20%

CCn1ncc(C(=O)c2ccc(S(C)(=O)=O)c(S(C)(=O)=O)c2C)c1O [drawing 32]
Activity against harmful plants VERPE (VERPE Veronica persica [19]; Comparative Table 9): 80% | Activity against harmful plants VIOTR (VIOTR Viola tricolor [20]): 20% | Activity against harmful plants XANST [21]: 40%

CCn1ncc(C(=O)c2ccc(C(F)(F)F)c(S(C)(=O)=O)c2C)c1O [drawing 15]
Activity against harmful plants ABUTH [17]: 100% | Activity against harmful plants ECHCG [18]: 100% | Activity against harmful plants LOLMU (LOLMU Lolium multiflorum [8]; [31]): 70%

CCn1ncc(C(=O)c2ccc(C(F)(F)F)c(F)c2C)c1O [drawing 18]
Activity against harmful plants AMARE [6, 34]: 0% | Activity against harmful plants STEME (STEME Stellaria media [23]): 40% | Activity against harmful plants VERPE (VERPE Veronica persica [19]; Comparative Table 2): 0%

CCn1ncc(C(=O)c2ccc(S(C)(=O)=O)c(S(C)(=O)=O)c2C)c1O [drawing 36]
Activity against harmful plants MATIN (MATIN Matricaria inodora; [25]): 40% | Activity against harmful plants VERPE (VERPE Veronica persica [3]; [25]): 80% | Activity against harmful plants VIOTR (VIOTR Viola tricolor [4]; [25]): 50% | Activity against harmful plants XANST [5]: 70%

CCn1ncc(C(=O)c2ccc(C(F)(F)F)c(S(C)(=O)=O)c2C)c1O [drawing 17]
Activity against harmful plants AMARE [6, 34]: 90% | Activity against harmful plants STEME (STEME Stellaria media [23]): 90% | Activity against harmful plants VERPE (VERPE Veronica persica [19]; Comparative Table 2): 90%
